Measurements: patent publication US20260139005A1 (priority 2022, published 2026)
Where a SMILES comes first, the peptide text is derived from it.

How the values were obtained:
Botrytis cinerea = experiment: MIC of NCR13 and alanine scanning variants, 96-well plate / resazurin assay; format: cell-based; conditions: 48 h
Experimental: Antifungal activity of NCR13_AlaV1-V5 was assessed at different concentrations using a 2-fold dilution series of each peptide. Antifungal activity of each peptide was determined spectrophotometrically using the 96-well plate assay. Around 45 μL of each peptide at different concentrations was added to each well of the microtiter plate containing 45 μL of ˜[…] spore suspension. The quantitative fungal growth inhibition was determined by measuring the absorbance at 595 nm using a (Tecan Infinite M200 ProTecan Systems Inc., San Jose, CA) microplate reader after 48 h. The fungal cell viability was determined by the resazurin cell viability assay. After incubation of the pathogen/peptide mixture for 48 h, 10 μl of 0.1% resazurin solution was added to each well. After incubation of the mixture overnight, a change in the color of the resazurin dye from blue to pink or colorless indicated the presence of live fungal cells. The MIC for each peptide was the lowest concentration of each peptide at which no change in blue color occurred.

Botrytis cinerea T-4 = experiment: MIC determination, 96-well plate assay with resazurin cell viability readout; format: cell-based
Experimental: The fungal strain of Botrytis cinerea T-4 was cultured on V8 agar plates. Fungal spores were harvested by flooding the fungal growth plates with sterile water. The spore suspension was filtered through two layers of Miracloth, centrifuged at 13,600 rpm for 1 min, washed, and re-suspended in low-salt Synthetic Fungal Medium (SFM) (U.S. Pat. No. 6,316,407, incorporated herein by reference in its entirety). The spore suspension was adjusted to the desired spore count using a hemocytometer.
Antifungal activity of NCR13_V7 (SEQ ID NO: 9) and NCR13_V9 (SEQ ID NO: 11) was assessed at different concentrations using a 2-fold dilution series of each peptide. Antifungal activity of each peptide was determined spectrophotometrically using the 96-well plate assay (Kereszt et al., Front. Plant Sci. 9, 1026 (2018)). Around 45 μL of each peptide at different concentrations was added to each well of the microtiter plate containing 45 μL of ˜10^5 spores/ml spore suspension. The quantitative fungal growth inhibition was determined by measuring the absorbance at 595 nm using a (Tecan Infinite M200 ProTecan Systems Inc., San Jose, CA) microplate reader after 48 h. The fungal cell viability was determined by the resazurin cell viability assay (Tiricz et al., Appl. Environ. Microbiol. 79, 6737-6746 (2013);. Balogh et al., Acta Microbiol. Immunol. Hung. 61, 229-239 (2014)). […]

B. cinerea = experiment: Semi-in planta drop-inoculation antifungal assay on detached N. benthamiana leaves (gray mold); format: in vivo, Botrytis cinerea on Nicotiana benthamiana; conditions: B. cinerea spores, peptide 0.75, 1.5, 3 and 6 μM, 48 h

| Compound | MIC (μM) Botrytis cinerea (Botrytis cinerea) | fold higher antifungal activity than NCR13_V7 (Botrytis cinerea T-4; B. cinerea in SFM) [fold] | MIC (μM) in SFM (Botrytis cinerea T-4; B. cinerea, low-salt Synthetic Fungal Medium (SFM), 48 h) [µM] | reduction of lesion size (B. cinerea) |
| --- | --- | --- | --- | --- |
| CC[C@H](C)[C@H](NC(=O)[C@H](CS)NC(=O)[C@H](C)NC(=O)[C@H](C)NC(=O)[C@H](C)NC(=O)[C@H](CCCCN)NC(=O)[C@@H]1CCCN1C(=O)[C@H](CCCCN)NC(=O)[C@H](CCCNC(=N)N)NC(=O)[C@H](CS)NC(=O)[C@H](C)NC(=O)[C@H](Cc1ccccc1)NC(=O)[C@H](CCCCN)NC(=O)[C@H](CCCCN)NC(=O)[C@H](CS)NC(=O)[C@H](CC(=O)O)NC(=O)[C@H](CCCCN)NC(=O)[C@H](CC(=O)O)NC(=O)[C@H](CO)NC(=O)[C@H](CCC(N)=O)NC(=O)[C@H](CS)NC(=O)[C@@H]1CCCN1C(=O)[C@H](CCCCN)NC(=O)[C@@H](N)[C@@H](C)O)C(=O)N[C@@H](CC(N)=O)C(=O)NCC(=O)N[C@@H](Cc1ccccc1)C(=O)N[C@@H](CS)C(=O)N[C@@H](CCCCN)C(=O)N[C@@H](CS)C(=O)N[C@H](C(=O)N[C@@H](CCCNC(=N)N)C(=O)O)C(C)C [NCR13_AlaV4] (H-TKPCQSDKDCKKFACRKPKAAACINGFCKCVR-OH; N-terminus and C-terminus assumed) | Inactive |  |  |  |
| N=C(N)NCCC[C@H](NC(=O)[C@H](CS)NC(=O)[C@H](Cc1c[nH]c2ccccc12)NC(=O)[C@H](Cc1ccccc1)NC(=O)[C@H](CCCCN)NC(=O)[C@@H](N)CCCCN)C(=O)N[C@@H](CCCCN)C(=O)N1CCC[C@H]1C(=O)N[C@@H](CCCCN)C(=O)N[C@@H](Cc1c[nH]c2ccccc12)C(=O)N1CCC[C@H]1C(=O)N[C@@H](CCCCN)C(=O)N[C@@H](CS)C(N)=O [NCR13_V9, KKFWCRKPKWPKC-NH2] (H-KKFWCRKPKWPKC-NH2; N-terminus assumed) |  | 2 | 1.5 | reduced the lesion sizes greater than NCR13_V7 |
| TKPCQSDKDCAAAACRKPKVPKCINGFCKCVR [NCR13_AlaV2] | Inactive |  |  |  |
| TKPCQSDKDCKKFACAAAAVPKCINGFCKCVR [NCR13_AlaV3] | Inactive |  |  |  |
